Literature values in US20230399335A1, “PROCESS FOR THE PREPARATION OF ASENAPINE IN THE FORM OF ITS FREE BASE” (LTS LOHMANN Therapie-Systeme AG, priority 2020, published 2023).

Settings: when taken orally

- bioavailability: < 2%
SMILES: CN1C[C@H]2c3ccccc3Oc3ccc(Cl)cc3[C@@H]2C1 (relative stereo) [asenapine, (3aRS,12bRS)-rel-5-chloro-2,3,3a,12b-tetrahydro-2-methyl-1H-dibenz[2,3:6,7]oxepin [4,5-c]pyrrole]
